In one assay the test system is SKOV3 cells. Description: CellTiter-Blue cell viability assay, single agent, 72 hour treatment, SKOV3. It is filed as cell-based. Conditions: Homo sapiens, SK-OV-3. How it is done:
(§1) Cell viability in the presence of varying concentrations of the above listed compounds at different time points was used to assess cytotoxicity and the effect of the compounds on cell proliferation.
(§2) Cell viability was measured by the CellTiter-Blue® cell viability assay Promega (Madison, Wis.). This procedure measures the conversion of the indicator dye (resazurin) to resorufin, an indicator of cell viability. Following treatment, growth media was removed and cells were incubated with 20 μl of CellTiter-Blue® Reagent and growth media for 1-4 hours at 37° C. Fluorescence values were measured at 535/590 nm using a Beckman-Coulter DTX-880 microplate reader.
(§3) Cells were grown to 70% confluency, trypsinized, counted, and seeded in 96 well flat-bottom plates at a final concentration of 2.5×10^3-5×10^3 cells/well (Day 0). Cells were allowed to incubate in growth media for 24 hours to allow for maximum adhesion. Treatment with the test agents or standard agents began on Day 1 and continued for 72 hours. At the 72 hour timepoint, treatment containing media was removed. Viable cell numbers are quantified by the CellTiter-Blue® cell viability assay as described above. Experiments were repeated at least twice with the same concentrations to determine growth inhibitory activity. Results from these studies were used to calculate an IC50 value (concentration of drug that inhibits cell growth by 50 percent of control) for each compound.
(§4) For single agent and combination studies, data from each experiment was collected and expressed as % Cell Growth using the following calculation: % Cell Growth=(ftest/fvehicle)×100
(§5) Where ftest is the fluorescence of the tested sample, and fvehicle is the fluorescence of the vehicle in which the drug is dissolved. Dose response graphs and IC50 values were generated using Prism 4 software (GraphPad) using the following equation: […]
(§6) Where X is the logarithm of concentration and Y is the response. Y starts at the Bottom and goes to Top with a sigmoid shape.
On the technique in general: The colour change of resazurin is a common sign of viable cells or microbes.

A further assay deals with A2780 cells. Description: CellTiter-Blue cell viability assay, single agent, 72 hour treatment, A2780. It counts as cell-based. The conditions noted are these: Homo sapiens. How it is done: as §1, §2, §3, §4, §5, §6
In assay [1] the test system is A2780 human ovarian cells xenograft. Description: In vivo efficacy in human ovarian tumor xenograft model. The conditions noted are these: female Ncr nude mice. The procedure:
FIG. 1 depicts in vivo efficacy studies of compound #4 (N-hydroxy-4-(1-(2-methoxyethyl)-1H-benzo[d]imidazol-2-ylamino)benzamide) in A2780 xenograft models.
In vivo efficacy of the disclosed compound was tested through a human ovarian tumor xenograft model. Female Ncr nude mice were inoculated with 1×10^7 A2780 human ovarian cells suspended in a mixture of 50% Matrigel and 50% tissue culture media in a total volume of 100 μl. Four days following inoculation, the mice were pair-matched into four groups of 7-8 mice per group at an average tumor weight of 157 mg per group. Group 1 (G1) was treated with vehicle only daily for 14 days. Group 3 (G3) was treated with Compound ID #4 (T062) at 100 mg/kg daily for 14 days. Group 5 (G5) was treated with Doxil at 3 mg/kg on Day 1 only. Group 6 (G6) was treated with Compound ID #4 (T062) at 50 mg/kg (daily for 14 days) plus Doxil at 3 mg/kg on Day 1 only. Group 7 (G7) was treated with Compound ID #4 (T062) at 100 mg/kg (daily for 14 days) plus Doxil at 3 mg/kg on Day 1 only. Vehicle and Compound ID #4 were administered orally via oral gavage while Doxil was administered intravenously via tail injection. Body weights and tumor measurements were collected twice weekly. Tumor width and length were measured in millimeters and converted to tumor weight (in milligrams) using the formula […]=tumor weight (mg.).

The source of these data is US10590088B2, “4-(benzimidazol-2-ylamino)benzamide derivatives and methods of synthesis thereof” (TRANSLATIONAL DRUG DEVELOPMENT, LLC, priority 2009, dated 2020).

SMILES strings stand for the structures.

A word on the IC50: it is the midpoint of a concentration-inhibition curve. As to `COCCn1c(Nc2ccc(C(=O)Nc3ccccc3N)cc2)nc2ccccc21` [ID 20, N-(2-aminophenyl)-4-(1-(2-methoxyethyl)-1H-benzo[d]imidazol-2-ylamino)benzamide], the IC50 with SKOV3 cells worked out at 5.8 µM.
On the same count and under the same terms, the figure for `CC(C)n1c(Nc2ccc(C(=O)NO)cc2)nc2cc(-c3cccnc3)ccc21` [ID 19, N-hydroxy-4-(1-isopropyl-5-(pyridin-3-yl)-1H-benzo[d]imidazol-2-ylamino)benzamide] is 8.1 µM.
Take `COCCn1c(Nc2ccc(C(=O)NO)cc2)nc2cc(-c3cncnc3)ccc21` [ID 15, N-hydroxy-4-(1-(2-methoxyethyl)-5-(pyrimidin-5-yl)-1H-benzo[d]imidazol-2-ylamino)benzamide]: the figures for the IC50 in the assay on A2780 cells and in the assay with SKOV3 cells were 16 µM and 48 µM, respectively.
As for `COCCn1c(Nc2ccc(C(=O)NO)cc2)nc2ccccc21` [ID 4, N-hydroxy-4-(1-(2-methoxyethyl)-1H-benzo[d]imidazol-2-ylamino)benzamide], the “In vivo efficacy (tumor weight) versus Doxil as a single agent” value in assay [1] (Group 6: Compound ID #4 50 mg/kg oral daily for 14 days plus Doxil 3 mg/kg i.v. on Day 1 only) and in assay [1] (Group 7: Compound ID #4 100 mg/kg oral daily for 14 days plus Doxil 3 mg/kg i.v. on Day 1 only) was “improved efficacy over Group 5” throughout.
For the compound `CC(C)OCCn1c(Nc2ccc(C(=O)NO)cc2)nc2ccccc21` [ID 13, N-hydroxy-4-(1-(2-isopropoxyethyl)-1H-benzo[d]imidazol-2-ylamino)benzamide], the IC50 is 5.1 µM with A2780 cells and 1.9 µM in the assay with SKOV3 cells.
Consider `COCCn1c(Nc2ccc(C(=O)NO)cc2)nc2ccc(F)cc21` [ID 21, 4-(6-fluoro-1-(2-methoxyethyl)-1H-benzo[d]imidazol-2-ylamino)-N-hydroxybenzamide], for which the IC50 with A2780 cells worked out at 12.1 µM; in the assay with SKOV3 cells, 17.7 µM.
As for `O=C(NO)c1ccc(Nc2nc3ccccc3n2CCO)cc1` [ID 11, N-hydroxy-4-(1-(2-hydroxyethyl)-1H-benzo[d]imidazol-2-ylamino)benzamide], the IC50 in the assay with A2780 cells was 40 µM; in the assay with SKOV3 cells, 34 µM.
For the compound `CN(C)CCn1c(Nc2ccc(C(=O)NO)cc2)nc2cc(Br)ccc21` [ID 17, 4-(5-bromo-1-(2-(dimethylamino)ethyl)-1H-benzo[d]imidazol-2-ylamino)-N-hydroxybenzamide], the IC50 in the assay on SKOV3 cells amounted to 8.2 µM.
As to `COCCn1c(Nc2ccc(C(=O)NO)cc2)nc2cc(C3CC3)ccc21` [ID 16, 4-(5-cyclopropyl-1-(2-methoxyethyl)-1H-benzo[d]imidazol-2-ylamino)-N-hydroxybenzamide], the values for the IC50 in the assay on A2780 cells and with SKOV3 cells were 15 µM and 4.3 µM, respectively.
The matching figures for `COCCn1c(Nc2ccc(C(=O)NO)cc2)nc2cc(Br)ccc21` [ID 10, 4-(5-bromo-1-(2-methoxyethyl)-1H-benzo[d]imidazol-2-ylamino)-N-hydroxybenzamide]: 4.1 µM and 6.9 µM.
The corresponding values for `COCCn1c(Nc2ccc(C(=O)NO)cc2)nc2c(F)cccc21` [ID 22, 4-(4-fluoro-1-(2-methoxyethyl)-1H-benzo[d]imidazol-2-ylamino)-N-hydroxybenzamide] are 12.1 µM and 17.6 µM.
The corresponding values for `COCc1ccc2c(c1)nc(Nc1ccc(C(=O)NO)cc1)n2C(C)C` [ID 23, N-hydroxy-4-(1-isopropyl-5-(methoxymethyl)-1H-benzo[d]imidazol-2-ylamino)benzamide] are 22 µM and 16 µM.
As to `CC(C)n1c(Nc2ccc(C(=O)Nc3ccccc3N)cc2)nc2ccccc21` [ID 1, N-(2-aminophenyl)-4-(1-isopropyl-1H-benzo[d]imidazol-2-ylamino)benzamide], the IC50 in the assay on SKOV3 cells came out at 4.8 µM.
For the compound `COCCn1c(Nc2ccc(C(=O)NO)cc2)nc2cc(F)ccc21` [ID 12, 4-(5-fluoro-1-(2-methoxyethyl)-1H-benzo[d]imidazol-2-ylamino)-N-hydroxybenzamide], the IC50 in the assay with A2780 cells was 1.4 µM; in the assay on SKOV3 cells, 0.7 µM.
The corresponding values for `COCCn1c(Nc2ccc(C(=O)NO)cc2)nc2cc(-c3cccc(F)c3)ccc21` [ID 14, 4-(5-(3-fluorophenyl)-1-(2-methoxyethyl)-1H-benzo[d]imidazol-2-ylamino)-N-hydroxybenzamide] are 1.1 µM and 0.3 µM.
As to `COCCCn1c(Nc2ccc(C(=O)NO)cc2)nc2ccccc21` [ID 9, N-hydroxy-4-(1-(3-methoxypropyl)-1H-benzo[d]imidazol-2-ylamino)benzamide], the IC50 with A2780 cells turned out to be 1.9 µM.
Regarding `CC(C)n1c(Nc2ccc(C(=O)NO)cc2)nc2cc(-c3cncnc3)ccc21` [ID 18, N-hydroxy-4-(1-isopropyl-5-(pyrimidin-5-yl)-1H-benzo[d]imidazol-2-ylamino)benzamide], the IC50 with SKOV3 cells was found to be 21 µM.
